From patent US20230078764A1 (Yumanity Therapeutics, Inc., priority 2019, published 2023)

Key:
human SCD5 = target: T1, human SCD5 (Homo sapiens, UniProt Q86SK9); test: Growth inhibition of yeast strain expressing human SCD5 as sole desaturase (OLE1 deleted), OD600 readout; assay type: cell-based; details: yeast strain expressing human SCD5 as sole desaturase; growth (OD600) after 40 h at 30° C.; read-out: SCD5 IC50
T1 construct: expressed in transfected cells; host or cells: yeast strain with OLE1 deleted, plasmid-borne human SCD5 (selected in SD-Ura)
T1 sequence (Q86SK9 1-330): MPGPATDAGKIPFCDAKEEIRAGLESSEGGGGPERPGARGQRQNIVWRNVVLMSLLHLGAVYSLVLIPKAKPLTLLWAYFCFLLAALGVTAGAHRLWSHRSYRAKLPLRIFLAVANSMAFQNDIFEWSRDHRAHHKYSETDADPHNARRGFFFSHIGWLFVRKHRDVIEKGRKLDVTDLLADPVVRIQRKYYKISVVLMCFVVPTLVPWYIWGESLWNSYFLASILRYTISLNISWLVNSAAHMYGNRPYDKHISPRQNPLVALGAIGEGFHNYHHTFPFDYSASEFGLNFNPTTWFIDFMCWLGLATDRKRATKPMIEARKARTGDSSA

human SCD1 = target: T2, human SCD1 (Homo sapiens, UniProt O00767); test: Growth inhibition of yeast strain expressing human SCD1 as sole desaturase (OLE1 deleted), OD600 readout; assay type: cell-based; details: yeast strain expressing human SCD1 as sole desaturase; growth (OD600) after 40 h at 30° C.; read-out: SCD1 IC50
T2 construct: expressed in transfected cells; host or cells: yeast strain with OLE1 deleted, plasmid-borne human SCD1 (selected in SD-Ura)
T2 sequence (O00767 1-359): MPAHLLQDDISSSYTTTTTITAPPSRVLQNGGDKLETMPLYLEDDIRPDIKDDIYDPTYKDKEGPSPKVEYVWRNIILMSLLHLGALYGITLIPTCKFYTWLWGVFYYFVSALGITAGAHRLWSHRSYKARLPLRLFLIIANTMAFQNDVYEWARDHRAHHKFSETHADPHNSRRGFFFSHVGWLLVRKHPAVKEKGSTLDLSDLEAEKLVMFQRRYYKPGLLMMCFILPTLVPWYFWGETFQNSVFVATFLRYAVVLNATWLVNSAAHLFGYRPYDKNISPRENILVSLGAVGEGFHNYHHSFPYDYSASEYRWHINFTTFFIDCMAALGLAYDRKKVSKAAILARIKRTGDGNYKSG

SMILES | IC50 (human SCD5) [µM] | IC50 (human SCD1) [µM]
Cn1nc(NC(=O)N[C@H]2CC[C@@H](Cc3cccc(Cl)c3)CC2)ccc1=O [Compound 322] | 6.07 | 12.7
Cn1nc(C(=O)Nc2ccc(Cc3ccc(F)c(F)c3)cn2)cc1O [Compound 324] | 1.13 | > 45
CCn1cc(C(=O)Nc2ccc(CC3CCCCC3)cn2)ccc1=O [Compound 326] | 4.71 | > 45
N#Cc1ccc(C(=O)Nc2ccc(CC3CCCCC3)cn2)cn1 [Compound 327] | 1.32 | > 45
O=C(Nc1ccc(Cc2cccc(F)c2)cn1)c1cc(Br)sn1 [Compound 334] | 9.39 | > 45
Cn1cc(C(=O)N[C@H]2CC[C@H](Cc3cccc(Cl)c3)CC2)ccc1=O [Compound 336] | 4.27 | > 45
Cn1cc(C(=O)Nc2ccc(C#CC3CC3)cn2)ccc1=O [Compound 337] | 9.87 | > 45
Cn1nc(C(=O)Nc2cc(Cc3ccc(Cl)cc3)ccn2)ccc1=O [Compound 338] | 16.3 | > 45
CC1(C)CN(C(=O)c2ccc(Cc3cccc(F)c3)cn2)CCO1 [Compound 339] | 17.7 | > 45
CN1N=C(C(=O)Nc2ncc(Cc3ccc(C#N)cc3)s2)CCC1=O [Compound 341] | 2.7 | > 45
Cn1cc(C(=O)Nc2ccc(Nc3cccc(Cl)c3)cn2)ccc1=O [Compound 342] | 20.9 | > 45
CN1N=C(C(=O)Nc2ccc(Cc3cccc(F)c3)s2)CCC1=O [Compound 343] | 3.42 | 3.14
O=C(Nc1ccc(Cc2cccc(F)c2)cn1)c1ccn2cnnc2c1 [Compound 344] | 26.3 | > 45
Cn1nc(C(=O)Nc2nnc(Cc3cccc(F)c3)s2)ccc1=O [Compound 345] | 2.52 | 3.95
CN(Cc1ccc(C(=O)Nc2ccc(Cc3cccc(Cl)c3)cn2)cn1)C(=O)OC(C)(C)C [Compound 348] | 4.96 | 7.37
Cn1cc(C(=O)Nc2ccc(Nc3cccc(F)c3)cn2)ccc1=O [Compound 349] | 32.3 | > 45
Cn1cc(C(=O)Nc2nnc(Cc3ccc(F)c(Cl)c3)s2)ccc1=O [Compound 350] | 5.42 | 2.6
Cn1nc(C(=O)Nc2cnc(Cc3cccc(Cl)c3)nc2)ccc1=O [Compound 351] | 35.5 | > 45
Cn1cc(NCc2ccc(Cc3cccc(F)c3)cn2)ccc1=O [Compound 352] | 35.5 | > 45
Cn1cc(C(=O)Nc2nc(C#N)c(Cc3cccc(F)c3)s2)ccc1=O [Compound 353] | 1.36 | 1.94

SMILES | IC50 (human SCD5) [µM] | IC50 (human SCD1) [µM]
Cn1cc(-c2cnc(NC(=O)Cc3cccc(F)c3)cn2)ccc1=O [Compound 359] | 3.27 | 18.7
Cn1nc(C(=O)Nc2ccc(CCOc3cccc(F)c3)cn2)ccc1=O [Compound 360] | 6.59 | 32.6
Cn1cc(C(=O)Nc2ccc(OCc3cccc(Cl)c3)cn2)ccc1=O [Compound 361] | 2.63 | > 45
Cn1nc(C(=O)Nc2ccc(CCOc3ccccc3)cn2)ccc1=O [Compound 362] | 14.5 | > 45
O=C(Nc1ccc(COc2ccc(F)c(Cl)c2)cn1)c1ccc(=O)n(C2CC2)c1 [Compound 365] | 4 | 25.8
Cn1nc(C(=O)Nc2ccc(Nc3cccc(Cl)c3)cn2)ccc1=O [Compound 367] | 2.98 | 25.8
Cn1nc(C(=O)NC2CCC(Oc3cccc(Cl)c3)CC2)ccc1=O (centres unmarked) [Compound 369] | 14 | > 45
CN1N=C(C(=O)Nc2ccc(CC3CCCCC3)cn2)CCC1=O [Compound 370] | 6.65 | > 45
Cn1ccc(C(=O)Nc2ccc(Cc3ccc(F)c(F)c3)cn2)n1 [Compound 371] | 0.01 | 0.12
CC(C)(O)c1ccc(C(=O)Nc2ccc(Cc3cccc(Cl)c3)cn2)cn1 [Compound 374] | 7.04 | 38.5
O=C(Nc1ccc(Cc2cccc(F)c2)nn1)c1ccc(=O)n(CC2CC2)n1 [Compound 376] | > 45 | > 45
CN1CC(C(=O)Nc2ncc(Cc3cccc(F)c3)s2)CC1=O (centres unmarked) [Compound 377] | > 45 | > 45
CN1N=C(C(=O)Nc2nc(Cc3ccc(F)cc3)cs2)CCC1=O [Compound 378] | > 45 | > 45
CCn1cc(C(=O)Nc2ccc(Cc3ccc(F)cc3)nn2)ccc1=O [Compound 379] | > 45 | > 45
CN1N=C(C(=O)Nc2ncc(Cc3ccccc3C#N)s2)CCC1=O [Compound 380] | > 45 | > 45
CN1N=C(C(=O)NCc2ccc(Cc3cccc(F)c3)cn2)CCC1=O [Compound 381] | > 45 | > 45
CN1N=C(C(=O)Nc2ccnc(Cc3cccc(Cl)c3)c2)CCC1=O [Compound 382] | > 45 | > 45
CC(C)c1ccc(Cc2ccc(NC(=O)C3=NN(C)C(=O)CC3)nc2)cc1 [Compound 383] | > 45 | > 45
Cn1nc(C(=O)Nc2ccc(Cc3cc(F)cc(Cl)c3)nn2)ccc1=O [Compound 384] | > 45 | > 45
CN1N=C(C(=O)Nc2ncc(COc3cccc(Cl)c3)s2)CCC1=O [Compound 385] | > 45 | > 45

Now from value to compound:

IC50 (human SCD5) [µM] | IC50 (human SCD1) [µM] | SMILES
0.81 | 10.7 | Cn1nc(C(=O)Nc2ccc(Cc3ccc(F)c(Cl)c3)cn2)cc1O [Compound 323]
0.66 | 16.4 | Cn1nc(C(=O)Nc2ccc(Cc3cc(F)cc(F)c3)cn2)cc1O [Compound 325]
0.01 | 1.76 | Cn1cccc(C(=O)Nc2ccc(Cc3ccc(F)c(F)c3)cn2)c1=O [Compound 328]
0.01 | 0.1 | Cn1cccc(C(=O)Nc2ccc(Cc3cc(F)cc(F)c3)cn2)c1=O [Compound 329]
0.01 | 0.57 | Cn1cccc(C(=O)Nc2ccc(Cc3cccc(Cl)c3)cn2)c1=O [Compound 330]
0.01 | 0.13 | Cn1cccc(C(=O)Nc2ccc(Cc3ccc(F)c(Cl)c3)cn2)c1=O [Compound 331]
0.48 | 1.68 | CCn1cccc(C(=O)Nc2ccc(Cc3cccc(F)c3)cn2)c1=O [Compound 332]
0.18 | 0.11 | C=Cc1ncc(C(=O)Nc2ccc(Cc3cccc(Cl)c3)cn2)cc1F [Compound 333]
0.69 | 15.4 | Cn1ccc(C(=O)Nc2ccc(Cc3cccc(F)c3)cn2)nc1=O [Compound 335]
0.12 | 0.09 | CN1N=C(C(=O)Nc2ncc(Cc3cccc(C(F)(F)F)c3)s2)CCC1=O [Compound 340]
0.55 | 0.34 | Cn1nc(C(=O)Nc2nnc(Cc3cc(F)cc(Cl)c3)s2)ccc1=O [Compound 346]
0.71 | 0.68 | Cn1nc(C(=O)Nc2nnc(Cc3ccc(F)c(Cl)c3)s2)ccc1=O [Compound 347]
0.28 | 6.78 | CC(=O)c1ccc(C(=O)Nc2ccc(Cc3cccc(Cl)c3)cn2)cn1 [Compound 354]
0.16 | 0.54 | CCn1cc(C(=O)Nc2ccc(Cc3cccc(F)c3)cn2)cn1 [Compound 355]
0.04 | 0.12 | Cn1cc(C(=O)Nc2ccc(Cc3cccc(F)c3)cn2)cn1 [Compound 356]
0.05 | 4.06 | Cn1cc(NC(=O)c2ccc(Cc3cccc(F)c3)cn2)ccc1=O [Compound 357]
0.17 | 6.05 | O=C(Nc1ccc(Cc2cccc(F)c2)cn1)c1cnc2nsnc2c1 [Compound 358]
0.13 | 3.16 | Cn1nccc(NC(=O)c2ccc(Cc3cccc(Cl)c3)cn2)c1=O [Compound 363]
0.02 | 0.71 | COc1nccc(C(=O)Nc2ccc(Cc3cccc(F)c3)cn2)n1 [Compound 364]
0.02 | 0.02 | O=C(Nc1ccc(Cc2cccc(Cl)c2)cn1)c1ccc(CCO)nc1 [Compound 366]
0.24 | 1.37 | CC(O)c1ccc(C(=O)Nc2ccc(Cc3cccc(Cl)c3)cn2)cn1 (centres unmarked) [Compound 368]
0.77 | > 45 | O=C(Nc1ccc(Cc2cccc(F)c2)cn1)c1ccn(C(F)(F)F)n1 [Compound 372]
0.03 | 0.3 | CCn1cc(C(=O)Nc2ccc(Cc3cccc(Cl)c3)cn2)cn1 [Compound 373]
0.01 | 0.01 | O=C(Nc1ccc(CC2CCCCC2)cn1)c1ccc(CO)nc1 [Compound 375]
